US5658908A (priority 1992, dated 1997)
Entries after “also recorded” stand apart in the source; their conditions may differ. Where two headings read alike, the source gives them in different places.

How the values were obtained:
[1] = system: guinea pig ileum; assay: Inhibition of electrically stimulated contraction of guinea pig ileum; type: cell-based; conditions: Cavia porcellus, mean of (n) experiments, read-out: Guinea Pig lleum ED50
[2] = molecular target: T1, Delta Receptor (Rattus norvegicus, UniProt P33533); assay: Delta receptor binding, rat brain membranes; set-up: species or system rat (Sprague-Dawley)
T1 construct: Rat (Sprague-Dawley) brain membranes were prepared; from tissue; host or cells: rat (Sprague-Dawley) brain membranes

[3] = molecular target: T2, mouse vas deferens (Mus musculus, UniProt P32300); assay: cell-based; type: cell-based
T2 construct: Vasa deferentia were removed from mice; from tissue; host or cells: mouse vas deferens

[4] = molecular target: T3, Mu Receptor (Rattus norvegicus, UniProt P33535); assay: Mu receptor binding, rat brain membranes; set-up: species or system rat (Sprague-Dawley)
T3 construct: Rat (Sprague-Dawley) brain membranes were prepared; from tissue; host or cells: rat (Sprague-Dawley) brain membranes

[5] = Analgesia (test not described); type: in vivo; conditions: in words
[6] = system: mu receptor; assay: Mu opioid receptor agonist activity; conditions: in words
[7] = molecular target: delta receptor (Mus musculus, UniProt P32300); assay: Delta opioid receptor agonist activity; conditions: in words
[8] = system: mu and delta opioid receptors; assay: Rodent tests of analgesia, muscle rigidity, respiratory depression and proconvulsant activity
[9] = system: delta-opioid receptor; assay: Tail flick test, injection into brain (icv); type: in vivo; conditions: mice
[10] = 125I-[D-Ala2,D-Leu5]enkephalin 0.24 nM with mu-agonist morphiceptin analog, 24° C., 60 min, mean of (n) experiments, read-out: Delta Receptor IC50
[11] = 125I-[D-Ala2,N-MePhe4,Met(O)ol5]enkephalin 0.1 nM, 24° C., 60 min, mean of (n) experiments, read-out: Mu Receptor IC50
[12] = electrically stimulated, 37° C., mean of (n) experiments, read-out: Mouse Vas Deferens ED50

T2 sequence (P32300 whole entry): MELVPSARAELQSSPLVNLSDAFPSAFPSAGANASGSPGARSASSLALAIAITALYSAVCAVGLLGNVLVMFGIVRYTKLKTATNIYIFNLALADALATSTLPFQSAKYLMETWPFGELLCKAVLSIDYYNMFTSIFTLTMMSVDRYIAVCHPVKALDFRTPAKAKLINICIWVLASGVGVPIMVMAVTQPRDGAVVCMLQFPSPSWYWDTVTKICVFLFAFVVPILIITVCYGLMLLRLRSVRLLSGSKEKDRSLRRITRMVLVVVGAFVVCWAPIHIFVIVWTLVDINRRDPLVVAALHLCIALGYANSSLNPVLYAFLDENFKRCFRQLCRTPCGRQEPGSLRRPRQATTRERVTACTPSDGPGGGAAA
Sequence of delta receptor (P32300 whole entry): as above
T3 sequence (P33535 whole entry): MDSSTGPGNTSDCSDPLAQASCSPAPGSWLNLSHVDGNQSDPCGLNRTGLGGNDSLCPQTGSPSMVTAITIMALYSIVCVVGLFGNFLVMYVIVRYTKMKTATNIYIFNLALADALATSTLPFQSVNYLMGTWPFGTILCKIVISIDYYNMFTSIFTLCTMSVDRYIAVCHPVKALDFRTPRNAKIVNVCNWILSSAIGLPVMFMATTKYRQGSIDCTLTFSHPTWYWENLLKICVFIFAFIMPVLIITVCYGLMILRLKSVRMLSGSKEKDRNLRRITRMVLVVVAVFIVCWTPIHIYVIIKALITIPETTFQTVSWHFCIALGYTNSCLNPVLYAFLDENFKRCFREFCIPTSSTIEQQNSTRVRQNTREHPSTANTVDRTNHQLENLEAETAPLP
T1 sequence (P33533 whole entry): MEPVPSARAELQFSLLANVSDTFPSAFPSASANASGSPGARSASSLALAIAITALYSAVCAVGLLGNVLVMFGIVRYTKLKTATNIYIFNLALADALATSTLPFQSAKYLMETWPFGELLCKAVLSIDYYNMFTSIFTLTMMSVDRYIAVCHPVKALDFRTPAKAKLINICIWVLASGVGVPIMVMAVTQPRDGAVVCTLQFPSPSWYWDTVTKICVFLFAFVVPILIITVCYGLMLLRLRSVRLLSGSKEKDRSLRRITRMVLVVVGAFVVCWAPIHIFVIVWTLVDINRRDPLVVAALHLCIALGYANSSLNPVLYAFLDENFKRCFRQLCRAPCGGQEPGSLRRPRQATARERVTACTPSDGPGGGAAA

Row | SMILES | IC50 [1] [µM] | IC50 [2, 10] [µM] | IC50 [3] [µM] | IC50 [4, 11] [µM] | other results
1 | C=CCN1C[C@H](C)N([C@H](c2ccc(C(=O)NCC(=O)NCC(=O)O)cc2)c2cccc(O)c2)C[C@H]1C (relative stereo) [Example 25, (±)-N-(4-((αR*)-α-((2S*,5R*)-4-Allyl-2,5-dimethyl-1-piperazinyl)-3-hydroxybenzyl)benzoyl)glycylglycine] | 0.3 | 0.0004 | 0.002 | 0.07 | –
2 | C=CCN1C[C@H](C)N([C@@H](c2ccsc2)c2cccc(O)c2)C[C@H]1C (relative stereo) [Compound K] | – | – | – | – | analgesic activity [5]: strong analgesics; mu receptor agonist activity [6]: significant agonist activity; delta receptor agonist activity [7]: delta-receptor opiate properties
3 | C=CCN1C[C@H](C)N([C@H](c2cccc(O)c2)c2cccs2)C[C@H]1C [Example 67, (-)-3-((R)-((2S,5R)-4-Allyl-2,5-dimethyl-1-piperazinyl)(2-thienyl)methyl)phenol] | – | – | – | – | IC50 ([2]; read-out: Delta Receptor IC50, 125I-[D-Ala2,D-Leu5]enkephalin 0.24 nM with mu-agonist morphiceptin analog, 24° C., 60 min, mean of (n) experiments): 0.027 µM; IC50 ([3]; read-out: Mouse Vas Deferens ED50, electrically stimulated, 37° C., mean of (n) experiments): 0.02 µM; IC50 ([4]; read-out: Mu Receptor IC50, 125I-[D-Ala2,N-MePhe4,Met(O)ol5]enkephalin 0.1 nM, 24° C., 60 min, mean of (n) experiments): 0.0003 µM
4 | CCN(CC)C(=O)c1ccc(C(c2cccc(O)c2)N2C[C@@H](C)N(C)[C@@H](C)C2)cc1 (relative stereo) [Example 34, N,N-Diethyl-4-(3-hydroxy-α-(cis-3,4,5-trimethyl-1-piperazinyl)benzyl)benzamide] | 3.7 | 0.004 | > 10 | > 10 | –
5 | C=CCN1C[C@H](C)N([C@H](c2ccc(S(C)(=O)=O)cc2)c2cccc(O)c2)C[C@H]1C (relative stereo) [Example 54, (±)-3-((αR*)-α-((2S*,5R*)-4-allyl-2,5-dimethyl-1-piperazinyl)-4-(methylsulfonyl)benzyl)phenol] | 5.6 | 0.0013 | 0.042 | 0.04 | –
6 | C=CCN1C[C@H](C)N([C@@H](c2cccc(O)c2)c2cccc(C(=O)N(CC)CC)c2)C[C@H]1C [Example 85, (+)-3-((αR)-α-((2S,5R)-4-Allyl-2,5-dimethyl-1-piperazinyl)-3-hydroxybenzyl)-N,N-diethylbenzamide] | 0.018 | 0.0019 | 0.0073 | – | mu receptor agonist activity ([6]; listed as Compound C): mixed mu/delta opioid agonist; also recorded: agonism at both mu and delta opioid receptors; delta receptor agonist activity ([7]; listed as Compound C): mixed mu/delta opioid agonist; also recorded: agonism at both mu and delta opioid receptors; analgesic potency compared to morphine [8]: analgesic potency comparable to mu-analgesic morphine; muscle rigidity and respiratory depression compared to morphine [8]: much reduced extent of muscle rigidity and respiratory depression; proconvulsant activity [8]: free of proconvulsant activity
7 | C=CCN1C[C@H](C)N([C@@H](c2cccc(O)c2)c2cccc(C(=O)N(CC)CC)c2)C[C@H]1C (relative stereo) [Example 84, (±)-3-((αR*)-α-((2S*,5R*)-4-allyl-2,5-dimethyl-1-piperazinyl)-3-hydroxybenzyl)-N,N-diethylbenzamide] | 0.01 | 0.0016 | 0.0086 | – | –
8 | C=CCN1C[C@H](C)N([C@H](c2ccc(C(=O)NCCOCCOCCNC(=O)c3ccc([C@H](c4cccc(O)c4)N4C[C@@H](C)N(CC=C)C[C@@H]4C)cc3)cc2)c2cccc(O)c2)C[C@H]1C (relative stereo) [Example 41, N,N'-((Ethylenedioxy)diethylene)bis(4-((R*)-α-((2S*,5R*)-4-allyl-2,5-dimethyl-1-piperazinyl)-3-hydroxybenzyl)benzamide)] | 0.0065 | 0.01 | – | 0.004 | IC50 [3, 12]: 0.013 µM
9 | C=CCN1C[C@H](C)N([C@H](c2ccc(C(=O)NCC(=O)NCC(=O)O)cc2)c2cccc(O)c2)C[C@H]1C (relative stereo) [Compound H] | – | – | – | – | delta receptor agonist activity [7]: delta receptor agonist activity
10 | C=CCN1C[C@H](C)N([C@H](c2ccc(C(=O)N(CC)CC)cc2)c2cccc(O)c2)C[C@H]1C [Example 6a, (+)-4-((αR)-α-((2S,5R)-4-Allyl-2,5-dimethyl-1-piperazinyl)-3-hydroxybenzyl)-N,N-diethylbenzamide] | 0.084 | 0.0012 | 0.00017 | – | –
11 | CCN(CC)C(=O)c1ccc(C(C2=C(C)CN(C)C(C)C2)c2cccc(O)c2)cc1 (racemic) [Example 51, (±)-(R*, R*) or (R*, S*)-N,N-diethyl-4-(3-hydroxy-α-(1,2,5,6-tetrahydro-1,3,6-trimethyl-4-pyridyl)benzyl)benzamide] | 3 | 0.0025 | – | 0.13 | IC50 [3, 12]: 0.052 µM
12 | CCN(CC)C(=O)c1ccc([C@H](c2cccc(O)c2)N2C[C@H](C)NC[C@H]2C)cc1 (relative stereo) [Example 15, (±)-4-((αR*)-α-((2R*,5S*)-2,5-Dimethyl-1-piperazinyl)-3-hydroxybenzyl)-N,N-diethylbenzamide] | 2.7 | – | 4.4 | 0.12 | –
13 | C=CCN1C[C@H](C)N([C@H](c2cccc(O)c2)c2cccs2)C[C@H]1C (relative stereo) [Example 44, (±)-3-((R*)-((2S*,5R*)-4-Allyl-2,5-dimethyl-1-piperazinyl)(2-thienyl)methyl)phenol] | – | 0.011 | 0.037 | 0.0008 | –
14 | C=CCN1C[C@H](C)N(C(c2ccc(C(=O)N(CC)CC)cc2)c2cccc(NC=O)c2)C[C@H]1C (mixture of isomers) [Example 36, (±)-trans-4-(α-(4-allyl-2,5-dimethyl-1-piperazinyl)-3-formamidobenzyl)-N,N -diethylbenzamide] | 1.3 | 0.0091 | 0.002 | 0.26 | –
15 | C=C(C)CN1C[C@H](C)N(C(c2ccc(S(=O)(=O)N(CC)CC)cc2)c2cccc(O)c2)C[C@H]1C (stereo partly drawn) [Compound D] | – | – | – | – | analgesic activity in the tail flick test [9]: provide analgesic activity; reversal of analgesia by injection of naloxone or delta-specific antagonists (ICI 174,864 or naltrindole) [9]: reversible; agonist activity in the mouse vas deferens ([3]; in words): potent agonist
16 | C/C=C\CN1[C@H](C)CN(C(c2ccc(C(=O)N(CC)CC)cc2)c2cccc(O)c2)C[C@@H]1C (relative stereo) [Example 11, cis-4-(α-(4-((Z)-2-Butenyl)-3,5-dimethyl-1-piperazinyl)-3-hydroxybenzyl)-N,N-diethylbenzamide] | 3.6 | – | > 10 | 0.6 | –
17 | CCN(CC)C(=O)c1ccc(C(c2cccc(O)c2)N2C[C@@H](C)N(C)[C@@H](C)C2)cc1 (relative stereo) [Compound E] | – | – | – | – | analgesic activity in the tail flick test [9]: provide analgesic activity; reversal of analgesia by injection of naloxone or delta-specific antagonists (ICI 174,864 or naltrindole) [9]: reversible; agonist activity in the mouse vas deferens ([3]; in words): inactive as an agonist; antagonist activity in the mouse vas deferens ([3]; in words): may be a weak antagonist
18 | CCN(CC)C(=O)c1ccc([C@H](c2cccc(O)c2)N2C[C@H](C)N(C)C[C@@H]2C)cc1 [Example 12, (+)-N,N-diethyl-4-(3-hydroxy-(αR)-α-((2S,5S)-2,4,5-trimethyl-1-piperazinyl)benzyl)benzamide] | > 10 | 0.0012 | 0.002 | 0.15 | –
19 | C=CCN1C[C@@H](C)N([C@H](c2ccccc2)c2cccc(O)c2)C[C@@H]1C (relative stereo) [Example 9, (±)-3-((αR*)-α-((2R*,5S*)-4-Allyl-2,5-dimethyl-1-piperazinyl)benzyl)phenol] | 0.004 | 0.016 | 0.04 | 0.0011 | –
20 | C=CCN1C[C@H](C)N([C@H](c2ccc(C(=O)N(CC)CCO)cc2)c2cccc(O)c2)C[C@H]1C (relative stereo) [Example 60, (±)-4-((αR*))-α-((2S*,5R*)-4-Allyl-2,5-dimethyl-1-piperazinyl)-3-hydroxy-benzyl)-N-ethyl-N-(2-hydroxyethyl)benzamide] | 0.086 | 0.0065 | 0.0003 | 0.02 | –
21 | C=CCN1C[C@H](C)N([C@H](c2ccc(C(=O)N(CC)CC)cc2)c2cccc(O)c2)C[C@H]1C (relative stereo) [Example 6, (±)-4-((αR*)-α-((2S*,5R*)-4-Allyl-2,5-dimethyl-1-piperazinyl)-3-hydroxybenzyl)-N,N-diethylbenzamide] | 0.143 | 0.0018 | 0.0002 | – | –
22 | C=CCN1C[C@H](C)N([C@H](c2ccc(C(=O)N(CC)CCO)cc2)c2cccc(O)c2)C[C@H]1C (relative stereo) [Compound J] | – | – | – | – | delta receptor agonist activity [7]: potent delta receptor agonist activity
23 | C=CCN1C[C@H](C)N([C@H](c2ccc(S(=O)(=O)N(CC)CC)cc2)c2cccc(O)c2)C[C@H]1C (relative stereo) [Example 59, (±)-4-((αR*)-α-((2S*,5R*)-4-Allyl-2,5-dimethyl-1-piperazinyl)-3-hydroxybenzyl)-N,N-diethylbenzenesulfonamide] | 1.8 | 0.02 | 0.0026 | 0.1 | –
